Assay results as given in paper PMC7560827, “Immunodominant proteins P1 and P40/P90 from human pathogen Mycoplasma pneumoniae” (Nature Communications, 2020).

Legend:
P40/P90N [1] = biological target: T1, P40/P90N (Mycoplasmoides pneumoniae, UniProt Q50341)
T1 construct: gene orf6

P40/P90N [2] = biological target: T1, P40/P90N; remark: listed apart in the source

CC(=O)N[C@H]1[C@H]([C@H](O)[C@H](O)CO)O[C@@](O[C@H]2[C@@H](O)[C@@H](CO)O[C@@H](O[C@H]3[C@H](O)[C@@H](O)C(O)O[C@@H]3CO)[C@@H]2O)(C(=O)O)C[C@@H]1O (some centres unmarked) [3SL]
X-ray crystal structure, 3.2 Å (P40/P90N [1]): 6TLZ for the 3SL complex

CC(=O)N[C@H]1[C@H]([C@H](O)[C@H](O)CO)O[C@@](OC[C@H]2O[C@@H](O[C@H]3[C@H](O)[C@@H](O)C(O)O[C@@H]3CO)[C@H](O)[C@@H](O)[C@H]2O)(C(=O)O)C[C@@H]1O (some centres unmarked) [6SL]
X-ray crystal structure, 2.8 Å (P40/P90N [2]): 6TM0 for the 6SL complex
